Test results reported in ChEMBL document CHEMBL5727760, “Pyrrolidine derivatives” (2020).

Molecular target: Cathepsin S (Homo sapiens, UniProt P25774)
Test: Enzyme Inhibition Assay: Enzyme activity is measured by observing the increase in fluorescence intensity caused by cleavage of a peptide substrate containing a fluorophore whose emission is quenched in the intact peptide.Assay buffer: 100 mM potassium phosphate pH 6.5, EDTA-Na 5 mM, Triton X-100 0.001%, DTT 5 mM.Enzymes (all at 1 nM): human and mouse Cathepsin S, Cat K, Cat B, Cat L.Substrate (20 μM): Z-Val-Val-Arg-AMC, except for Cat K which uses Z-Leu-Arg-AMC (both from Bachem).Z=Benzyloxycarbonyl.AMC=7-Amino-4-Methyl-Coumarin.DTT=dithiothreitol.Final volume: 100 μL.Excitation 360 nm, Emission 465 nm.Enzyme is added to the substance dilutions in 96-well microtitre plates and the reaction is started with substrate.

Chain of Cathepsin S (P25774 whole entry): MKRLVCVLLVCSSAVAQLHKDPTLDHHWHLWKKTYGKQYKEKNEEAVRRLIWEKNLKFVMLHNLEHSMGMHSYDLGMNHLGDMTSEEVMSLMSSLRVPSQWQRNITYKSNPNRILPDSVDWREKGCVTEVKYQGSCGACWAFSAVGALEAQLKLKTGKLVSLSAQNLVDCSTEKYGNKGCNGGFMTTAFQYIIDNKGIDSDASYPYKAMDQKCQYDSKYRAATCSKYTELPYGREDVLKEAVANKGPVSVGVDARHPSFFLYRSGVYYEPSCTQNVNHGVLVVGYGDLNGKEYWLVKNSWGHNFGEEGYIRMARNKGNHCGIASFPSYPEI

Q: With `N#CC1(NC(=O)[C@@H]2C[C@@H](S(=O)(=O)c3ccc(-n4cnnn4)cc3C(F)(F)F)CN2C(=O)C2(C(F)(F)F)CC2)CC1` as the compound, how does the IC50 read?
A: The IC50 was 0.584 nM.

Q: How did the IC50 turn out when `Cc1nnnn1-c1ccc(S(=O)(=O)[C@@H]2C[C@@H](C(=O)NC3(C#N)CC3)N(C(=O)C3(C(F)(F)F)CC3)C2)c(C(F)(F)F)c1` was run?
A: Its IC50 is 0.349 nM.

Q: `N#CC1(NC(=O)[C@@H]2C[C@@H](S(=O)(=O)c3ccc(-n4cc(C(F)(F)F)cn4)cc3C(F)(F)F)CN2C(=O)C2(C(F)(F)F)CC2)CC1` was tested. Which IC50 did it give?
A: The IC50 was 0.752 nM.

Q: For `N#CC1(NC(=O)[C@@H]2C[C@@H](S(=O)(=O)c3ccc(-n4cnc(Cl)n4)cc3C(F)(F)F)CN2C(=O)C2(C(F)(F)F)CC2)CC1`, which IC50 is on record?
A: The IC50 was 0.625 nM.

Q: With `N#CC1(NC(=O)[C@@H]2C[C@@H](S(=O)(=O)c3ccc(-n4nccn4)cc3C(F)(F)F)CN2C(=O)C2(C(F)(F)F)CC2)CC1` as the compound, how does the IC50 read?
A: The IC50 was 0.506 nM.

Q: Which IC50 does the source give for `N#CC1(NC(=O)[C@@H]2C[C@@H](S(=O)(=O)c3ccc(-n4cncn4)cc3C(F)(F)F)CN2C(=O)C2(C(F)(F)F)CC2)CC1` here?
A: Its IC50 is 0.391 nM.
